Reference: ChEMBL document CHEMBL4342429, “Synthesis and evaluation of substituted 8,8-dimethyl-8H-pyrano[2,3-f]chromen-2-one derivatives as vasorelaxing agents” (Bioorg Med Chem Lett, 2020)

Assays:
[1] = test system: Mesenteric artery; experiment: Vasodilating activity in Wistar rat endothelium intact main mesenteric artery assessed as inhibition of U46619-induced contractions at 30 uM relative to control; assay type: functional
[2] = test system: Mesenteric artery; experiment: Vasodilating activity in Wistar rat endothelium intact main mesenteric artery assessed as inhibition of U46619-induced contractions; assay type: functional, tissue-based; conditions: for EC50: Rattus norvegicus, Wistar, Mesenteric artery
[3] = test system: Mesenteric artery; experiment: Vasodilating activity against U46619-induced contractions in Wistar rat endothelium intact main mesenteric artery assessed as increase in sensitivity relative to scopoletin; assay type: functional
[4] = test system: Mesenteric artery; experiment: Vasodilating activity in Wistar rat endothelium intact main mesenteric artery assessed as inhibition of U46619-induced contractions at 1000 uM relative to control; assay type: functional
[5] = test system: Mesenteric artery; experiment: Vasodilating activity in Wistar rat main mesenteric artery preconstricted with 100 nM U46619 assessed as vasorelaxation in presence of 80 mM KCl relative to control; assay type: functional
[6] = test system: Mesenteric artery; experiment: Vasodilating activity in Wistar rat endothelium-denuded main mesenteric artery preconstricted with 100 nM U46619 assessed as vasorelaxation; assay type: functional, tissue-based
[7] = test system: Mesenteric artery; experiment: Vasodilating activity in Wistar rat endothelium-denuded main mesenteric artery preconstricted with 100 nM U46619 assessed as vasorelaxation relative to control; assay type: functional
[8] = test system: Mesenteric artery; experiment: Vasodilating activity in Wistar rat endothelium intact main mesenteric artery preconstricted with 100 nM U46619 assessed as vasorelaxation relative to control; assay type: functional
[9] = test system: Mesenteric artery; experiment: Vasodilating activity in Wistar rat endothelium intact main mesenteric artery preconstricted with 100 nM U46619 assessed as vasorelaxation; assay type: functional, tissue-based
[10] = test system: Mesenteric artery; experiment: Vasodilating activity in Wistar rat main mesenteric artery preconstricted with 100 nM U46619 assessed as vasorelaxation relative to control; assay type: functional
[11] = test system: Mesenteric artery; experiment: Vasodilating activity in Wistar rat main mesenteric artery preconstricted with 100 nM U46619 assessed as relaxation preincubated for 20 mins in presence of 1 mM tetraethyl ammonium relative to control; assay type: functional

For `CC1(C)C=Cc2c(c(OCCN3CCCCC3)cc3ccc(=O)oc23)O1`, which Emax at 30 µM [1] is on record?
Its Emax at 30 µM is under 10%.

For `CCCCN(C)C(=O)COc1cc2ccc(=O)oc2c2c1OC(C)(C)C=C2`, which pD2 [2] is on record?
Its pD2 is 5.575.

And the EC50 [2]?
The EC50 was 2.66 µM.

And the “fold change (FC)” value [3]?
The value was 42.11.

And the Emax at 30 µM [1]?
The Emax at 30 µM was 65.7%.

`COc1cc2ccc(=O)oc2cc1O` [SCOPOLETIN] was tested. Which pD2 [2] did it give?
Its pD2 is 3.95.

And the EC50 [2]?
Its EC50 is 112 µM.

And the Emax at 1000 µM [4]?
Its Emax at 1000 µM is 89.2%.

Which Emax at 30 µM [1] does the source give for `CN(C)CCOc1cc2ccc(=O)oc2c2c1OC(C)(C)C=C2` here?
The Emax at 30 µM was under 10%.

Which Emax at 30 µM [1] does the source give for `CCN(CC)CCOc1cc2ccc(=O)oc2c2c1OC(C)(C)C=C2` here?
Its Emax at 30 µM is under 10%.

For `CC1(C)C=Cc2c(c(OCCN3CCCC3)cc3ccc(=O)oc23)O1`, which Emax at 30 µM [1] is on record?
The Emax at 30 µM was under 10%.

How did the pD2 [2] turn out when `CCCCN(C)C(=O)CCCCOc1cc2ccc(=O)oc2c2c1OC(C)(C)C=C2` was run?
The pD2 was 5.674.

And the EC50 [2]?
Its EC50 is 2.12 µM.

And the “fold change (FC)” value [3]?
The value was 52.83.

What about the Emax at 30 µM [1] of the same compound?
Its Emax at 30 µM is 63.6%.

With `CCCCN(C)C(=O)CCCOc1cc2ccc(=O)oc2c2c1OC(C)(C)C=C2` as the compound, how does the Emax at 30 µM [1] read?
The Emax at 30 µM was under 10%.

Which results are given for `COc1cc2ccc(=O)oc2c2c1OC(C)(C)C=C2`?
Emax [5]: 53.3%; Activity [6]: Dose-dependent effect; pD2 [2]: 5.802; EC50 [2]: 1.58 µM; fold change (FC) [3]: 70.89; Emax [7]: 93.7%; Emax [8]: 94.9%; Emax at 30 µM [1]: 96.7%; Activity [9]: Dose-dependent effect; Emax [10]: 94%; Emax [11]: 54.1%

For `CCCCCN(C)C(=O)CCCCOc1cc2ccc(=O)oc2c2c1OC(C)(C)C=C2`, which pD2 [2] is on record?
Its pD2 is 5.299.

What about the EC50 [2] of the same compound?
Its EC50 is 5.02 µM.

What about the “fold change (FC)” value [3] of the same compound?
The value was 22.31.

And the Emax at 30 µM [1]?
The Emax at 30 µM was 83.1%.

Which results are given for `CCCCCN(C)C(=O)COc1cc2ccc(=O)oc2c2c1OC(C)(C)C=C2`?
pD2 [2]: 5.419; EC50 [2]: 3.81 µM; fold change (FC) [3]: 29.4; Emax at 30 µM [1]: 94%

With `CCCCCN(C)C(=O)CCCOc1cc2ccc(=O)oc2c2c1OC(C)(C)C=C2` as the compound, how does the pD2 [2] read?
Its pD2 is 5.491.

And the EC50 [2]?
The EC50 was 3.23 µM.

What about the “fold change (FC)” value [3] of the same compound?
Its value is 34.67.

What about the Emax at 30 µM [1] of the same compound?
Its Emax at 30 µM is 95.1%.

How did the Emax at 30 µM [1] turn out when `CC(CN(C)C)Oc1cc2ccc(=O)oc2c2c1OC(C)(C)C=C2` (stereo not given) was run?
The Emax at 30 µM was under 10%.
